# Measurements taken from a melting point compilation (Tetko et al.; mined from patent text by program, amines drawn as free bases though some values may be those of a salt).
row,SMILES,melting point
1,CCOC(=O)C1=Cc2cc(S(=O)(=O)Cl)ccc2OC1C(F)(F)F (stereo not given),97.2 to 98.4 °C
2,Cc1cccc2c(=O)cc(O)c(=O)[nH]c12,184 to 186 °C
3,CC(C)(C)OC(=O)N1CCC(=O)N1c1ccc2ccccc2n1,112 °C
4,CC(C)c1[nH]nc2c1C(=O)c1c(NC(=O)CN3CCC(CN)CC3)cccc1-2,218 to 220 °C
5,C[C@@H]1S[C@@H](C(=O)O)Cc2cc3c(cc2C1=O)OCO3,192 to 193 °C
6,Cc1nc(N2CCN(C)CC2)ccc1N1CCCn2c1nc1c(Cl)ccc(C(OC(F)F)C(F)(F)F)c12 (stereo not given),193 to 195 °C
7,CC#CCN(C)c1ccc(OC23CC4CC(CC(C4)C2)C3)cc1,180 to 181 °C
8,COc1ccc(NN=C2CCC3(CC2)OCCO3)cc1,168 to 169 °C
9,CC(C)c1cn(C(C)(C)C(=O)N(C)C)nc1-c1ccccc1Cl,86 to 88 °C
10,C=CCOc1cc(Cl)ccc1C(=O)OC,47 to 55 °C
11,CO/C(=C\C=C\c1cc2cc(C(F)(F)F)ccc2[nH]1)C(=O)O,191 to 193 °C
12,COc1ccc(Nc2nc(N3CCOCC3)nc(-n3c(C(F)F)nc4c(OC)cccc43)n2)cn1,201 to 202 °C
13,COc1cc2c(cc1O)CCN(C(=O)c1ccc(OC)c(OC)c1)C2=O,199 to 200 °C
14,CCC(O)c1ccc(-c2ccc(Cl)cc2)cc1 (stereo not given),114 to 116 °C
15,CC(=O)c1nc(-c2ccncc2)[nH]c1C,181 to 183 °C
16,CC(C)SC1=N/C(=C\c2c[nH]c3ncc(Cl)cc23)C(=O)N1,291 to 293 °C
17,CCCCCC(O)(CC#N)c1ccc(OC)cc1 (stereo not given),45 to 47 °C
18,Cc1c(-c2ccccc2)n(-c2cc([N+](=O)[O-])ccc2Cl)c(-c2ccccc2)cc1=O,277 to 279 °C
19,C=CCOC(=O)c1ccc(OC(=O)c2ccc(O[Si](C)(C)C(C)(C)C)c(C34CC5CC(CC(C5)C3)C4)c2)nc1,130 to 132 °C
20,CC(C)/C=C(/C(=O)O)c1ccc(S(C)(=O)=O)cc1,179 to 182 °C
21,CCOC(=O)COCCc1cc2cc(Cl)ccc2n1S(=O)(=O)c1ccccc1,60 to 62 °C

row,SMILES,melting point
1,C=C(CCC)C(=O)c1ccc(OCCCC(=O)O)c(Cl)c1Cl,85 to 87 °C
2,COc1ccc(CN2CC(CO)CC2=O)cc1OC (stereo not given),78 to 79 °C
3,Cc1c(NC(=O)c2ccc(OC[C@@H]3CCCO3)cc2)ccc2c1cc(CN1CCC(C)(O)CC1)n2C,210 °C
4,Nc1nc(O)c2c(n1)NCC(CCc1cc(C(=O)O)c[nH]1)C2 (stereo not given),> 260 °C
5,OCC(O)Cc1ncc[nH]1 (stereo not given),98 to 100 °C
6,O=C(NCc1ccc(Br)cc1)Nc1cccc2[nH]ccc12,198 °C
7,N#Cc1ccc2cc(CCc3cc4ccc(C#N)cc4o3)oc2c1,266 to 267 °C
8,CCSc1ncc(Oc2ccc(Cl)c(Cl)c2)cc1C#N,80 to 81 °C
9,COc1cc(/C(C#N)=C/c2ccc(Cl)c([N+](=O)[O-])c2)cc(OC)c1OC,198 to 199 °C
10,CS(=O)(=O)c1ccc(-n2nc(-c3ccc4c(c3)CCN(C3CCC3)CC4)ccc2=O)cc1,225 °C
11,CNC(=O)OCCOc1cc(-n2c(=O)cc(C(F)(F)F)n(C)c2=O)c(F)cc1Cl,173 to 175 °C
12,Nc1nc(-c2cc(Cl)ccc2Cl)nc(N2CCC(CO)CC2)n1,173 to 175 °C
13,CCCCNc1nc(N(CCCC)C2CC(C)(C)N(OC3CCCCC3)C(C)(C)C2)nc(N(CCCC)C2CC(C)(C)N(OC3CCCCC3)C(C)(C)C2)n1,80 to 86 °C
14,CS(=O)(=O)Nc1ccc2ccccc2c1-c1c(P(c2ccccc2)c2ccccc2)ccc2ccccc12,109 °C
15,COC1=C(OC)C(=O)C2=C(CCC(CCOc3cc(OC)cc(OC)c3)CC2)C1=O,63 to 65 °C
16,Nc1ccc(O)c(CSCCO)c1,121 °C
17,Cn1cc2c(C3CC3C#N)c(Br)ccc2n1 (stereo not given),154 to 156 °C
18,COc1cc(/C=C/C(=O)O)ccc1OCc1sc(-c2ccc(C(F)(F)F)cc2)nc1C,235 to 237 °C
19,COC(=O)C(=O)CC(=O)c1ccc(Cl)cc1,108 to 110 °C
20,CCOC(=O)c1ncc2[nH]c3ccc(I)cc3c2c1C,250 to 255 °C
21,COC(=O)c1cccc2c1OCO2,55 to 57 °C

row,SMILES,melting point
1,CCc1ncnc(O)c1Br,175 to 177 °C
2,CCCC(=CC(N)C(=O)O)CP(=O)(O)O (stereo not given),193 °C
3,CCCCCCCCCCOc1ccc2c(=O)c3cccc(C(=O)OCC)c3oc2c1CCC(=O)OCC,69 to 70 °C
4,CC(=O)N1CCc2c(c3cccc4c3n2CCS4)C1,161 to 163 °C
5,CCOC(=O)C(=CNc1ncccc1C)C(=O)OCC,65 to 67 °C
6,Nc1ncnc2c1c(-c1ccc(Oc3cccc(CN4CCOCC4)c3)cc1)cn2C1CCOC1 (stereo not given),83 to 85 °C
7,CNC(=C[N+](=O)[O-])SCc1ccc(CN(C)C)o1,101 to 103 °C
8,CS(=O)(=O)N1CCN([C@@H](CNC(=O)c2ccc(OCc3cccc4ccccc34)cc2)C(=O)NO)CC1,170 °C
9,O=C(c1ccccc1)n1ccc2ccccc21,54 to 55 °C
10,O=C(O)Cc1cc(C(=O)Cc2ccc(C(=O)O)cc2)ccc1O,> 260 °C
11,CC(C)(C)CN1C(=O)N(CC(=O)O)CC(c2ccccc2Cl)c2cc(Cl)ccc21 (stereo not given),228 to 231 °C
12,O=C(N[C@H]1CCCNC1=O)c1cccc(C(F)(F)F)c1,148 to 150 °C
13,NC(=O)CNc1ncccc1[N+](=O)[O-],250 to 251 °C
14,CS(=O)(=O)c1ccc(-c2cnn(C3CCCC3)c(=O)c2-c2ccc(F)cc2)cc1,191 to 193 °C
15,COc1ccccc1NC(=NC#N)NC(NC(=O)c1ccc(Cl)cc1)C(C)(Cl)Cl (stereo not given),185 to 186 °C
16,N#Cc1c(N2CCCN(c3ccc(F)c(F)c3)CC2)cc[nH]c1=S,250 to 251 °C
17,CCc1nc(C)c(/C=C(\NC(=O)c2ccc(C(=O)NCc3cccc(O)c3)cc2Cl)C(=O)O)s1,> 200 °C
18,CCC(C)C(C#N)NCC(O)c1ccccc1 (stereo not given),106 to 108 °C
19,CC(=O)Nc1c2oc3cc(Cl)ccc3c2nn1C,290 to 300 °C

# Other lines, results leading:
row,melting point,SMILES
1,156 to 157 °C,CSc1ccc(N)c(C(=O)NCC2CCN(C(c3ccccc3)c3ccccc3)CC2)c1
2,163 to 164 °C,Brc1ccc2c(c1)c1cc(Br)ccc1n2-c1ccccc1
3,99 to 101 °C,O=C1NC(=O)C(N(CC#Cc2ccc(F)cc2)c2ccc(CCNCC(O)COc3ccc(OCc4ccccc4)cc3)cc2)S1 (stereo not given)
4,196 to 198 °C,CCc1c(-c2ccccc2)c2c(COCCN3CCCCC3)cc3c(O)ccc1n32
5,288 to 292 °C,CCCN1NCc2c(C3C(=O)Nc4ccc(F)cc43)ncnc21 (stereo not given)
6,58 to 60 °C,CCCCCCCN(CCCCCSc1nc(-c2ccccc2)c(-c2ccccc2)[nH]1)c1ncnc2nc[nH]c12
7,98 to 100 °C,CCOC(=O)c1csc(-c2ccc3cc(C(=O)OCc4ccccc4)c(C45CC6CC(CC(C6)C4)C5)cc3c2)c1
8,163 to 165 °C,COC(Cc1ccc(OCCc2nc(C(C)(C)C)oc2C)c2ccsc12)C(=O)O (stereo not given)
9,232 to 236 °C,Cn1ncc(C(=O)N2CCC2)c1C(=O)Nc1ccn2nc(-c3cccc(F)c3)nc2c1
10,146 to 150 °C,Oc1ccc2c(c1)OCC(c1cccc(F)c1)C2c1ccc(OCCN2CCCC2)cc1 (stereo not given)
11,249 °C,Nc1nc2c(s1)CCc1nc3ccccn3c1-2
12,126 °C,COc1cc(-c2nc3cc(F)ccc3s2)ccc1OC(=O)N1CCOCC1
13,147 °C,COc1ccccc1C1=CC(N2CCN(Cc3ccc(C)cc3)CC2)=NC12C=CC(=O)C=C2
14,150 °C,O=C1c2ccccc2C(=O)N1CC(=O)N(Cc1ccccc1)c1ccccc1
15,238 to 240 °C,O=c1c(C2=Nc3ccccc3S(=O)(=O)N2)c(O)c2ccccc2n1CCCCO
16,243 to 244 °C,CCc1nc2c(C)cc(C)nc2n1Cc1ccc(C2(C(=O)O)Cc3ccccc3C2)s1
17,102 to 109 °C,CC(C)N(CCC(c1cccs1)c1ccc(O)cc1O)C(C)C (stereo not given)
18,210 to 212 °C,CCCCc1ncc(/C=C(\Cc2cccs2)C(=O)O)n1Cc1ccccc1C#N
19,82 to 85 °C,CC(C)c1c(Br)ccc(N)c1C#N
20,169 to 170 °C,CCn1nc(-c2sc(C(=O)NCc3ccccn3)nc2-c2ccccc2)ccc1=O

row,melting point,SMILES
1,161 to 163 °C,O=C(O)C1c2cc(F)ccc2-c2ccc(F)cc21
2,155 °C,CC1(C)Cc2nc(N3CCOc4ccc(Br)cc43)sc2C(=O)N1
3,266 to 270 °C,O=C(Nc1c[nH]nc1C(=O)NCCc1ccc(Br)cc1)c1ccccn1
4,124 to 128 °C,Cc1[nH]cnc1CCCCNC(=O)c1ccccc1
5,110 to 111 °C,CCOC(=O)CCc1cnc2c(NC(=O)c3c(Cl)cccc3Cl)cccc2c1
6,116 to 117 °C,c1ccc(-n2c(Cn3ccnc3)nc3ccccc32)cc1
7,229 to 231 °C,C[C@H]1CN(c2c(F)cc3c(=O)c(C(=O)O)cn(CCF)c3c2Cl)C[C@H]1NC(=O)OC(C)(C)C (relative stereo)
8,189 to 192 °C,COc1cc(OC)nc(NC(=O)NS(=O)(=O)c2c(C(=O)C3CC3)cnn2C)n1
9,143 °C,CCN1CCc2ccc(Nc3ncc(Cl)c(N[C@H]4CCCC[C@H]4C(=O)NC)n3)cc2CC1 (relative stereo)
10,180 °C,CCCOc1ncc(I)cc1C(=O)Nc1c(CC)nn(CCN2CCOCC2)c1C(N)=O
11,82 to 85 °C,Cc1ccc(I)c(CO)c1
12,86 to 88 °C,Oc1cccc2c1SCCC2
13,157 to 158 °C,CC(C)(C)c1ccc(C(O)CCCCN2CCC(=C3c4ccccc4CCc4ccccc43)CC2)cc1 (stereo not given)
14,142 to 144 °C,CCc1ccc(C#CC(C)N(O)C(N)=O)cc1 (stereo not given)
15,229 to 233 °C,CC1CCN(C=Nc2ccc3c(c2)C(=O)c2ccc(N=CN4CCC(C)CC4)cc2C3=O)CC1
16,177 to 178 °C,COc1nc(OC)nc(Oc2cccc3c2C(=S)OC3C)n1 (stereo not given)
17,66 to 67 °C,COC1=CC=C(CN2CCN(CCCC(=O)c3ccc(F)cc3)CC2)C(F)C1=NNS(=O)(=O)c1ccc(C)cc1 (stereo not given)
18,74 to 76 °C,CCCCCCCCCCCCCCCCCC(=O)NC(C)Cc1cccc(C(F)(F)F)c1 (stereo not given)
19,107 to 109 °C,COc1ccc(C(=O)Nc2ccccc2)cc1NS(=O)(=O)c1ccccc1Cl
